The source made the active and inactive calls.
Experiments:
Assay type in all cases: functional, organism-based
[1] = tested on: Streptococcus pyogenes; assay: Antimicrobial activity against Streptococcus pyogenes
[2] = tested on: Salmonella enterica subsp. enterica serovar Typhi str. CT18; assay: Antimicrobial activity against Salmonella typhi
[3] = tested on: Shigella sonnei; assay: Antimicrobial activity against Shigella sonnei
[4] = tested on: Staphylococcus aureus; assay: Antimicrobial activity against Staphylococcus aureus

Measured: Activity

COc1c(Br)cc2c(c1Br)OC(=O)C2=C(C)C
inactive: all assays above

CCCCO[C@]1(OC)C(Br)=C[C@@](O)(CC(N)=O)C=C1Br
inactive: all assays above

CCCCCO[C@]1(OC)C(Br)=C[C@@](O)(CC(N)=O)C=C1Br
inactive: all assays above

COc1c(Br)cc2c(c1Br)OC(=N)C2
inactive: all assays above

From ChEMBL document CHEMBL1151150, “Brominated Metabolites from the Sponge Aplysina (verongia) thiona” (J Nat Prod, 1990)
